Key:
[1] = target: Acetylcholinesterase (Electrophorus electricus, UniProt O42275); experiment: Inhibition of electric eel AChE using acetylthiocholine iodide as substrate preincubated for 5 mins followed by substrate addition measured after 2 mins by modified Ellman assay
[2] = Selectivity index, ratio of IC50 for electric eel AChE to IC50 for equine serum BChE
[3] = target: Cholinesterase (Equus caballus, UniProt P81908); experiment: Inhibition of equine serum BChE using butyrylthiocholine iodide as substrate preincubated for 5 mins followed by substrate addition measured after 2 mins by modified Ellman assay
[4] = target: Indoleamine 2,3-dioxygenase 1 (Homo sapiens, UniProt P14902); experiment: Inhibition of human recombinant IDO1 using L-tryptophan as substrate after 30 mins by fluorimetric analysis
[5] = tested on: Mus musculus; experiment: Hepatotoxicity in ICR mouse assessed as serum AST level at 15 mg/kg, ig after 8 hrs; format: toxicity, organism-based; settings: in vivo, po
[6] = tested on: Mus musculus; experiment: Hepatotoxicity in ICR mouse assessed as serum ALT level at 15 mg/kg, ig after 36 hrs; format: toxicity, organism-based; settings: in vivo, po
[7] = tested on: Mus musculus; experiment: Hepatotoxicity in ICR mouse assessed as serum AST level at 15 mg/kg, ig after 22 hrs; format: toxicity, organism-based; settings: in vivo, po
[8] = tested on: Mus musculus; experiment: Hepatotoxicity in ICR mouse assessed as serum ALT level at 15 mg/kg, ig after 22 hrs; format: toxicity, organism-based; settings: in vivo, po
[9] = tested on: Mus musculus; experiment: Hepatotoxicity in ICR mouse assessed as pericentral necrosis of hepatocytes surrounding intermediate and periportal zones at 15 mg/kg, ig after 30 hrs by hematoxylin and eosin staining-based assay; format: toxicity, organism-based; settings: in vivo, po
[10] = tested on: Mus musculus; experiment: Reversal of scopolamine-induced cognitive function impairment in ICR mouse assessed as escape latency time at 15 mg/kg, po dosed 30 mins prior to scopolamine treatment by Morris water maze test (reference value: 40.5 sec); format: functional
[11] = tested on: Mus musculus; experiment: Hepatotoxicity in ICR mouse assessed as serum AST level at 15 mg/kg, ig after 36 hrs; format: toxicity, organism-based; settings: in vivo, po
[12] = tested on: Mus musculus; experiment: Hepatotoxicity in ICR mouse assessed as fatty degeneration of hepatocytes surrounding intermediate and periportal zones at 15 mg/kg, ig after 30 hrs by hematoxylin and eosin staining-based assay; format: toxicity, organism-based; settings: in vivo, po
[13] = tested on: Mus musculus; experiment: Hepatotoxicity in ICR mouse assessed as serum ALT level at 15 mg/kg, ig after 8 hrs; format: toxicity, organism-based; settings: in vivo, po

Chain of Acetylcholinesterase (O42275 whole entry): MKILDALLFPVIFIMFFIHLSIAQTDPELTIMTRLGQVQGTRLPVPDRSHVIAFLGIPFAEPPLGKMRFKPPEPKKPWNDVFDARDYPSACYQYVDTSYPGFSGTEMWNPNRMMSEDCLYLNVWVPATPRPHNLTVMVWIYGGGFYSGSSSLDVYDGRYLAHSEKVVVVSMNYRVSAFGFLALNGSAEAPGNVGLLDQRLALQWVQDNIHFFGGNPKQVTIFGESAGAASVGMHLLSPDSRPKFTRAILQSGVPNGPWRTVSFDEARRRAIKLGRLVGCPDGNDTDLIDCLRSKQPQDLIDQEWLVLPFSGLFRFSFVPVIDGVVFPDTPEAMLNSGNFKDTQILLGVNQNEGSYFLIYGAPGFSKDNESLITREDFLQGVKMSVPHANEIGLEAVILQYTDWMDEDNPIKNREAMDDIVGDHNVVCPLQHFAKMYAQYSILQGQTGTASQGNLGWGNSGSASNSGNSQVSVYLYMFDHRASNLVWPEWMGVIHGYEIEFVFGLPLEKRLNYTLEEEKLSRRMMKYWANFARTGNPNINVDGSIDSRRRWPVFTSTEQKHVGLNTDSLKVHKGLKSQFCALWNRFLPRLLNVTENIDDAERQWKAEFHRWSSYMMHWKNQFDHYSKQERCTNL
Chain of Cholinesterase (P81908 whole entry): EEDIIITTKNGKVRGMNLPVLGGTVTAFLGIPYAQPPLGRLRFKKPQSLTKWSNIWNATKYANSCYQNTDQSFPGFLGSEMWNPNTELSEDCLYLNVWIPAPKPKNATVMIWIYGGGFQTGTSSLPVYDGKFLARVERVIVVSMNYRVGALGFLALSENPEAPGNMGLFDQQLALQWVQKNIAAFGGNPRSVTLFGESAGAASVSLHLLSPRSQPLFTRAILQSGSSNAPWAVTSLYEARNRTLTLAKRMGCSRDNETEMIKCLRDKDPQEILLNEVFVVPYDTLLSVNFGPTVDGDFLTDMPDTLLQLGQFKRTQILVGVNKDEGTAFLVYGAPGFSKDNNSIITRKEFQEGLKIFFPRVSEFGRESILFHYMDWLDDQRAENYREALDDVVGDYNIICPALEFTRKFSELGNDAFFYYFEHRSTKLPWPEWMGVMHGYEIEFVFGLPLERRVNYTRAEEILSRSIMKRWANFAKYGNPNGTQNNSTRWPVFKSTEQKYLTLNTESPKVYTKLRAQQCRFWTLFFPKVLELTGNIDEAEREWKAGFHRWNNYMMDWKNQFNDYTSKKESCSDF
Chain of Indoleamine 2,3-dioxygenase 1 (P14902 whole entry): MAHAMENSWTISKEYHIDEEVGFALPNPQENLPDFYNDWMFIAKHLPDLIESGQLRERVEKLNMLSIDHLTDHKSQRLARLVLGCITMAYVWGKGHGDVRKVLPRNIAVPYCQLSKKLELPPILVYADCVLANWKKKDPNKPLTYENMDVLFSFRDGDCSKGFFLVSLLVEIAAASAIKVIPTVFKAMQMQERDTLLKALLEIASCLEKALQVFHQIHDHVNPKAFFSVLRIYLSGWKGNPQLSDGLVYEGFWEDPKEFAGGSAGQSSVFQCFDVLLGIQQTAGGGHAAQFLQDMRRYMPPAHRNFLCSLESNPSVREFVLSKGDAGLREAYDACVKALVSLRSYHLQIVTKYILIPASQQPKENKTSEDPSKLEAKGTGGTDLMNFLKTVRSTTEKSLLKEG

SMILES: Cc1cccc(COC(Cn2ccnc2)c2ccc(Cl)cc2Cl)c1 (centres undefined)
- IC50 [1]: 30.7 µM
- Ratio IC50 [2]: 2.1
- IC50 [3]: 14.6 µM
- IC50 [4]: 1.2 µM

SMILES: Cc1ccccc1COC(Cn1ccnc1)c1ccc(Cl)cc1Cl (centres undefined)
- IC50 [1]: 37.5 µM
- Ratio IC50 [2]: 2
- IC50 [3]: 18.4 µM
- IC50 [4]: 2.2 µM

SMILES: COc1ccc(COC(Cn2ccnc2)c2ccc(Cl)cc2Cl)cc1 (centres undefined)
- Activity [5]: Non-Toxic
- Activity [6]: Non-Toxic
- Activity [7]: Non-Toxic
- Activity [8]: Non-Toxic
- IC50 [1]: 73.1 µM
- Activity [9]: Non-Toxic
- Ratio IC50 [2]: 4.4
- Time [10]: 13.4 s
- Activity [11]: Non-Toxic
- Activity [12]: Non-Toxic
- IC50 [3]: 16.5 µM
- IC50 [4]: 1 µM
- Activity [13]: Non-Toxic

SMILES: Clc1ccc(C(Cn2ccnc2)OCc2ccc(Br)cc2)c(Cl)c1 (centres undefined)
- IC50 [1]: 19.5 µM
- Ratio IC50 [2]: 1.5
- IC50 [3]: 13.1 µM
- IC50 [4]: 5.7 µM

SMILES: Fc1cccc(F)c1COC(Cn1ccnc1)c1ccc(Cl)cc1Cl (centres undefined)
- IC50 [1]: 176 µM
- Ratio IC50 [2]: 9.2
- IC50 [3]: 19.2 µM
- IC50 [4]: 4.2 µM

SMILES: COc1cccc(COC(Cn2ccnc2)c2ccc(Cl)cc2Cl)c1 (centres undefined)
- Activity [5]: Non-Toxic
- Activity [6]: Non-Toxic
- Activity [7]: Non-Toxic
- Activity [8]: Non-Toxic
- IC50 [1]: 81.3 µM
- Activity [9]: Non-Toxic
- Ratio IC50 [2]: 9.9
- Time [10]: 19.7 s
- Activity [11]: Non-Toxic
- Activity [12]: Non-Toxic
- IC50 [3]: 8.3 µM
- IC50 [4]: 2.8 µM
- Activity [13]: Non-Toxic

SMILES: Fc1ccc(COC(Cn2ccnc2)c2ccc(Cl)cc2Cl)cc1 (centres undefined)
- IC50 [1]: 33 µM
- Ratio IC50 [2]: 2.3
- IC50 [3]: 14.8 µM
- IC50 [4]: 4 µM

SMILES: Cc1ccc(COC(Cn2ccnc2)c2ccc(Cl)cc2Cl)cc1 (centres undefined)
- IC50 [1]: 26.9 µM
- Ratio IC50 [2]: 2.5
- IC50 [3]: 10.9 µM
- IC50 [4]: 2 µM

SMILES: CC(C)(C)c1ccc(COC(Cn2ccnc2)c2ccc(Cl)cc2Cl)cc1 (centres undefined)
- IC50 [1]: 24.3 µM
- Ratio IC50 [2]: 0.5
- IC50 [3]: 46.3 µM
- IC50 [4]: 4.4 µM

SMILES: Cc1ccc(COC(Cn2ccnc2)c2ccc(Cl)cc2Cl)cc1C (centres undefined)
- IC50 [1]: 17.3 µM
- Ratio IC50 [2]: 1.6
- IC50 [3]: 11.2 µM
- IC50 [4]: 2.2 µM

SMILES: Nc1c2c(nc3ccccc13)CCCC2 [TACRINE]
- Time [10]: 25.9 s

Source: ChEMBL document CHEMBL4219087, “Investigation of multi-target-directed ligands (MTDLs) with butyrylcholinesterase (BuChE) and indoleamine 2,3-dioxygenase 1 (IDO1) inhibition: The design, synthesis of miconazole analogues targeting Alzheimer's disease” (Bioorg Med Chem, 2018)
